Data: paper PMC11109052, “Metabolism characterization and toxicity of N-hydap, a marine candidate drug for lung cancer therapy by LC–MS method” (Natural Products and Bioprospecting, 2024)
Each block holds one molecule with its values, some of them ahead of it.

Assays:
[1] = tested on: MLMs; assay: Kinetics of N-hydap glucuronidation in MLMs; type: in vitro ADME, mouse; details: MLM
Procedure: (§1) In this study, the rats were executed by drawing blood from the abdominal aorta and mice were sacrificed with cervical dislocation before the liver and kidneys were excised. The liver and kidneys were removed, and washed with chilled cleansing solution (contains 8 mM KH2PO4, 5.6 mM EDTA·K2·2H2O, 1 mM DTT and 229.6 μM PMSF), homogenized in a tissue homogenate buffer with a pH of 7.4, (consisting of […], 8 mM K2HPO4, 250 mM sucrose, 1 mM EDTA·K2·2H2O and 229.6 μM PMSF). Subsequently, the homogenate was centrifuged at 10,400 rpm at 4 °C for 15 min, and the supernatant was then centrifuged at 35,000 rpm at 4 °C for 60 min. A 250 mM sucrose buffer was added to the pellet to reconstitute and the resuspension was stored at − 80 °C until use. Microsome protein concentrations were measured by Omni-Easy™ Instant BCA Protein Assay Kit.
(§2) Various microsomes including HLMs, HKMs, HIMs, RLMs, RKMs, MLMs and MKMs were involved in CYP and UGT reactions of N-hydap. […]
(§3) The substrate concentrations used for HLMs were 0.05, 0.5, 2, 2.5, 5, 10, 25, 50, and 100 μM. […] The rates of N-hydap-G by enzymes were expressed as nmol/mg/min, representing the amount of metabolites formed per minute per milligram of protein. Kinetic parameters were determined by analyzing the Eadie–Hofstee plots. […]

[2] = tested on: MKMs; assay: Kinetics of N-hydap glucuronidation in MKMs; type: in vitro ADME, mouse; details: MKM
Procedure: as §1, §2, §3

[3] = biological target: T1, UGT1A1 (Homo sapiens, UniProt P22309); assay: Kinetics of N-hydap glucuronidation by recombinant UGT1A1; type: in vitro ADME
T1 construct: purchased Cypex (Scotland, UK)

[4] = tested on: HIMs; assay: Kinetics of N-hydap glucuronidation in HIMs; type: in vitro ADME, human; details: HIM
Procedure: (§4) Various microsomes including HLMs, HKMs, HIMs, RLMs, RKMs, MLMs and MKMs were involved in CYP and UGT reactions of N-hydap. A typical CYP incubation mixture included 0.5 mg/mL microsomes protein, 3.3 mM glucose-6-phosphate, 3.3 mM MgCl2, 0.4 U/mL glucose-6-phosphate dehydrogenase, and N-hydap (1, 2.5, or 10 μM) in the 50 mM potassium phosphate buffer (KPI, pH 7.4). The incubation mixture was preincubated at 37 °C for 5 min, and the reaction was started by adding NADP to form a NADPH-regenerating system. Simultaneously, the classic UGT reaction system consisted of 50 mM KPI, 5 mM MgCl2, 0.5 mg/mL microsomes, 0.125 mg/mL alamethicin, and 5.25 mg/mL saccharolactone. The reaction was initiated after supplying UDPGA. The CYP and UGT mixtures were incubated at 37 °C in a shaking water bath (80 rpm) for 1.5 h to enhance metabolite formation. To terminate the reaction, an ice-cold solution of Tes (50 ng/mL, dissolved in methanol and used as an internal standard) was added to half of the mixture volume. […]
as §3

[5] = tested on: other UGT isoforms; assay: Incubation with recombinant human UGT isoforms: other isoforms; type: in vitro ADME; details: recombinant UGT 2 μg/mL
Procedure: Incubation of N-hydap (2.5 μM) with eight recombinant human CYP enzymes (CYP1A2, CYP2B6, CYP2C9, CYP2C19, CYP2D6, CYP3A4, CYP4A11 and CYP4F2) at three enzyme concentrations (2, 4, and 20 μg/mL) was conducted following the same procedure as described above for microsomes. Subsequently, incubation with N-hydap (1, 2.5, and 6 μM) and twelve recombinant human UGT isoforms (UGT1A1, UGT1A3, UGT1A4, UGT1A6, UGT1A7, UGT1A8, UGT1A9, UGT1A10, UGT2B4, UGT2B7, UGT2B15 and UGT2B17) was performed, with the enzyme concentration used at 2 μg/mL. All reactions were carried out in triplicate.

[6] = Distribution studies in mice organs; type: in vivo; details: 30 min and 4 h
Procedure: The heart, liver, spleen, lungs and kidneys were removed from mice after administering a dose of 5 mg/kg through oral gavage and 2 mg/kg through tail vein injection at 30 min and 240 min, followed by homogenization with normal saline. The resulting homogenate was centrifuged at 4 °C, 13,000 rpm for 20 min, and the supernatant was then mixed with the internal standard by vortexing. The mixtures were centrifuged at 4 °C, 13,000 rpm for 15 min. The resulting supernatant was then subjected to vacuum drying for 3–4 h. Lastly, the dried powder was reconstituted with a mixture of 50% methanol and water, and then centrifuged for LC–MS testing.

[7] = tested on: RLMs; assay: Kinetics of N-hydap glucuronidation in RLMs; type: in vitro ADME, rat; details: RLM
Procedure: as §1, §2, §3

[8] = biological target: T2, UGT1A3 (Homo sapiens, UniProt P35503); assay: Kinetics of N-hydap glucuronidation by recombinant UGT1A3; type: in vitro ADME
T2 construct: purchased Cypex (Scotland, UK)

[9] = tested on: RKMs; assay: Kinetics of N-hydap glucuronidation in RKMs; type: in vitro ADME, rat; details: RKM
Procedure: as §1, §2, §3

[10] = tested on: HKMs; assay: Kinetics of N-hydap glucuronidation in HKMs; type: in vitro ADME, human; details: HKM
Procedure: as §4, §3

[11] = tested on: HLMs; assay: Kinetics of N-hydap glucuronidation in HLMs; type: in vitro ADME, human; details: HLM
Procedure: as §4, §3

[12] = Pharmacokinetics studies in mice (plasma); type: in vivo; details: mice
Procedure: Mice were fasted for 12 h with access to water before drug administration. N-Hydap was dissolved in a solution containing 50% methanol and water. Before administration, the drug was diluted with PBS to achieve concentrations of 5 mg/kg and 2 mg/kg for gastric gavage and tail vein administration, respectively. Blood samples (120 μL) were collected from the orbital venous plexus at 2, 5, 10, 15, 30, 60, 90, 120, 180, and 240 min after N-hydap administration. The blood samples were collected into heparinized micro-centrifuge tubes and immediately centrifuged at 8000 rpm for 5 min at 4 °C. Plasma samples were prepared by adding an internal standard (IS) solution, Tes to the samples, followed by vortexing. The mixtures were then centrifuged at 4 °C and 13,000 rpm for 15 min. The resulting supernatant was dried under vacuum for 3–4 h, and the dry powder was reconstituted with a solution of 50% methanol and water. Finally, the plasma samples were analyzed using LC–MS, following the previously described method.
DAS 2.0 was used to calculate pharmacokinetic parameters using the standard non-compartmental method. All results were presented as mean ± standard deviation and significant differences were analyzed using One-way ANOVA by GraphPad Prism 8. Statistical significance was defined as p < 0.05.

[13] = parameters: method as in PMID 17513814; details: 2nd-line therapy of SCLC; cited from earlier work
[14] = tested on: SCLC; parameters: method as in PMID 33683919; details: 3rd-line therapy of SCLC; cited from earlier work
[15] = substrate: CC1CCC2C(C=CC(C)C2C(=O)c2c(O)c(C3(O)CCC(O)C4OC43)cn(O)c2=O)C1; assay: Kinetics of N-hydap glucuronidation by recombinant UGT1A1; type: in vitro ADME, human; details: other: glucuronidation, pH 7.4, 37.0 °C
[16] = substrate: CC1CCC2C(C=CC(C)C2C(=O)c2c(O)c(C3(O)CCC(O)C4OC43)cn(O)c2=O)C1; assay: Kinetics of N-hydap glucuronidation by recombinant UGT1A3; type: in vitro ADME, human; details: other: glucuronidation, pH 7.4, 37.0 °C

Vmax [3]: 4.596 ± 0.37 peak area ratio/min/mg
glucuronide detected after incubation with other UGT isoforms [5]: negligible amount
total distribution ratio, heart ([6]; oral 5 mg/kg): 2.61%
total distribution ratio, kidneys ([6]; oral 5 mg/kg): 17.64%
total distribution ratio, liver ([6]; oral 5 mg/kg): 70.86%
total distribution ratio, lungs ([6]; oral 5 mg/kg): 7.33%
total distribution ratio, spleen ([6]; oral 5 mg/kg): 1.56%
total distribution ratio, heart ([6]; tail vein injection 2 mg/kg): 11.92%
total distribution ratio, kidneys ([6]; tail vein injection 2 mg/kg): 16.73%
total distribution ratio, liver ([6]; tail vein injection 2 mg/kg): 56.90%
total distribution ratio, lungs ([6]; tail vein injection 2 mg/kg): 9.14%
total distribution ratio, spleen ([6]; tail vein injection 2 mg/kg): 5.31%
Vmax [8]: 10.07 ± 0.98 peak area ratio/min/mg
highest concentration in plasma, Rate (Am/Ai) ([12]; after oral administration of N-hydap 5 mg/kg): 1.632
highest concentration in plasma, Rate (Am/Ai) ([12]; after tail vein injection of N-hydap 2 mg/kg): 0.085
maximum plasma concentration after oral gavage relative to intravenous injection, dose-corrected ([12]; 1.632/0.085/2.5): 7.68 times
Molecule: CC1CCC2C(C=CC(C)C2C(=O)c2c(O)c(C3(O)CCC(OC4OC(C(=O)O)C(O)C(O)C4O)C4OC43)cn(O)c2=O)C1 (stereo not shown) [N-hydap-G]
Vmax [1]: 13.46 ± 1.32 peak area ratio/min/mg
Vmax [2]: 3.313 ± 0.51 peak area ratio/min/mg
Vmax [4]: 1.020 ± 0.066 peak area ratio/min/mg
Vmax [7]: 0.0567 ± 0.0014 peak area ratio/min/mg
Vmax [9]: 0.8051 ± 0.052 peak area ratio/min/mg
Vmax [10]: 7.210 ± 0.72 peak area ratio/min/mg
Vmax [11]: 5.126 ± 1.27 peak area ratio/min/mg

Molecule: CC[C@@]1(O)C(=O)OCc2c1cc1n(c2=O)Cc2cc3c(CN(C)C)c(O)ccc3nc2-1 [topotecan]
grade 3/4 anemia [13]: 31%
neutropenia [13]: 64%
thrombocytopenia [13]: 18%

Molecule: nivolumab: 3rd-line therapy for SCLC
overall survival [14]: does not prolong overall survival

B1: UGT1A1 (Homo sapiens) (protein)
chain: HAGKILLIPVDGSHWLSMLGAIQQLQQRGHEIVVLAPDASLYIRDGAFYTLKTYPVPFQREDVKESFVSLGHNVFENDSFLQRVIKTYKKIKKDSAMLLSGCSHLLHNKELMASLAESSFDVMLTDPFLPCSPIVAQYLSLPTVFFLHALPCSLEFEATQCPNPFSYVPRPLSSHSDHMTFLQRVKNMLIAFSQNFLCDVVYSPYATLASEFLQREVTVQDLLSSASVWLFRSDFVKDYPRPIMPNMVFVGGINCLHQNPLSQEFEAYINASGEHGIVVFSLGSMVSEIPEKKAMAIADALGKIPQTVLWRYTGTRPSNLANNTILVKWLPQNDLLGHPMTRAFITHAGSHGVYESICNGVPMVMMPLFGDQMDNAKRMETKGAGVTLNVLEMTSEDLENALKAVINDKSYKENIMRLSSLHKDRPVEPLDLAVFWVEFVMRHKGAPHLRPAAHDLTWYQYHSLDVIGFLLAVVLTVAFITFKCCAYGYRKCLGKKGRVKKAHKSKTH
notes: purchased Cypex (Scotland, UK)
Km [15]: 46.43 µM
Vmax/Km [15]: 99.0 µL/min/mg

B2: UGT1A3 (Homo sapiens) (protein)
chain: GKVLVVPIDGSHWLSMREVLRELHARGHQAVVLTPEVNMHIKEENFFTLTTYAISWTQDEFDRHVLGHTQLYFETEHFLKKFFRSMAMLNNMSLVYHRSCVELLHNEALIRHLNATSFDVVLTDPVNLCAAVLAKYLSIPTVFFLRNIPCDLDFKGTQCPNPSSYIPRLLTTNSDHMTFMQRVKNMLYPLALSYICHAFSAPYASLASELFQREVSVVDILSHASVWLFRGDFVMDYPRPIMPNMVFIGGINCANRKPLSQEFEAYINASGEHGIVVFSLGSMVSEIPEKKAMAIADALGKIPQTVLWRYTGTRPSNLANNTILVKWLPQNDLLGHPMTRAFITHAGSHGVYESICNGVPMVMMPLFGDQMDNAKRMETKGAGVTLNVLEMTSEDLENALKAVINDKSYKENIMRLSSLHKDRPVEPLDLAVFWVEFVMRHKGAPHLRPAAHDLTWYQYHSLDVIGFLLAVVLTVAFITFKCCAYGYRKCLGKKGRVKKAHKSKTH
notes: as for B1
Km [16]: 10.68 µM
Vmax/Km [16]: 942.9 µL/min/mg
